Measured values taken from patent US20080221086A1, “Novel Inhibitors of Glutaminyl Cyclase” (PROBIODRUG AG, priority 2006, published 2008).

Biological target: hQC (Homo sapiens, UniProt Q16769)
Assay: Fluorometric assay of glutaminyl cyclase (QC) inhibition, H-Gln-βNA or H-Gln-AMC substrate
Assay type: biochemical
Conditions: compound from preparative synthesis, purified by chromatography; fluorescent assay; read-out: IC50 hQC
How it was run: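 Ki values were obtained by fitting progress curves to a competitive-inhibition equation, and the rapid screen used 4 mM inhibitor with substrate at 1 KM. Both readouts coupled pyroglutamyl aminopeptidase at pH 8.0 and 30° C: H-Gln-βNA at 0.2 mM (ex/em 320/410 nm) or H-Gln-AMC (380/460 nm).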

hQC, sequence (Q16769 29-361): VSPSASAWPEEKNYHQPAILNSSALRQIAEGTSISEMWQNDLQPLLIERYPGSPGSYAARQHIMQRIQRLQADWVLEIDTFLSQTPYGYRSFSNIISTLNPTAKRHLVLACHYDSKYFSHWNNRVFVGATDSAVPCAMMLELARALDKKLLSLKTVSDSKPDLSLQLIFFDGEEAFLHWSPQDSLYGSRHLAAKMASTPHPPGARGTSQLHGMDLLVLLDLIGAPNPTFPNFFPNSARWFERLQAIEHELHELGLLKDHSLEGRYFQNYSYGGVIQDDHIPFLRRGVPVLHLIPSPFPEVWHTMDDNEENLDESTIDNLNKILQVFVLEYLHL

| IC50 | Compound |
| --- | --- |
| 0.0668 µM | O=C1N/C(=N/c2ccc3c(c2)OCCO3)C(c2ccc(Br)cc2)N1c1ccc2[nH]cnc2c1 (centres unmarked) [Compound 331, 1-(1H-Benzoimidazol-5-yl)-5-(4-bromo-phenyl)-4-[2,3-dihydro-benzo[1,4]dioxin-6-ylimino]-imidazolidin-2-one] |

Same assay, conditions: read-out: IC50

| Compound | IC50 |
| --- | --- |
| S=C1N/C(=N/Cn2nnc3ccccc32)C(c2ccc3c(c2)OCO3)N1c1ccc2[nH]cnc2c1 (centres unmarked) [Compound 176, 5-Benzo1,3dioxol-5-yl-1-(1H-benzoimidazol-5-yl)-4-benzotriazol-1-ylmethylimino-imidazolidine-2-thione] | 1.3 µM |
| Cc1ccc(C2/C(=N/C3CCCCCC3)NC(=S)N2c2ccc3nc[nH]c3c2)c(C)c1 (centres unmarked) [Compound 344, 1-(3H-Benzoimidazol-5-yl)-4-cycloheptylimino-5-(2,4-dimethyl-phenyl)-imidazolidine-2-thione] | 4.9 µM |
| O=C(C/N=C1/NC(=O)N(c2ccc3[nH]cnc3c2)C1c1ccc(Br)cc1)N1CCSCC1 (centres unmarked) [Compound 208, 1-(1H-Benzoimidazol-5-yl)-5-(4-bromo-phenyl)-4-2-oxo-2-thiomorpholin-4-yl-ethylimino-imidazolidin-2-one] | 4 µM |
| CC1=CC(C)C(C2/C(=N/c3ccccc3Br)NC(=S)N2c2ccc3[nH]cnc3c2)CC1 (centres unmarked) [Compound 300, 1-(1H-Benzoimidazol-5-yl)-4-2-bromo-phenylimino-5-(2,4-dimethyl-cyclohex-3-enyl)-imidazolidine-2-thione] | 9.4 µM |
| Cc1ccc(C2/C(=N/C(C)C)NC(=O)N2c2ccc3[nH]cnc3c2)c(C)c1 (centres unmarked) [Compound 156, 1-(1H-Benzoimidazol-5-yl)-5-(2,4-dimethyl-phenyl)-4-isopropylimino-imidazolidin-2-one] | 0.4 µM |
| O=C1N/C(=N\c2ccc3c(c2)OCCO3)C(c2cccc(Br)c2)N1c1ccc2nc[nH]c2c1 (centres unmarked) [Compound 334, 1-(3H-Benzoimidazol-5-yl)-5-(3-bromo-phenyl)-4-2,3-dihydro-benzo1,4dioxin-6-ylimino-imidazolidin-2-one] | 0.4 µM |
| O=C(C/N=C1/NC(=O)N(c2ccc3[nH]cnc3c2)C1c1ccc2nsnc2c1)N1CCC(O)C1 (centres unmarked) [Compound 282, 1-(1H-Benzoimidazol-5-yl)-5-benzo[c][1,2,5]thiadiazol-5-yl-4-2-(3-hydroxy-pyrrolidin-1-yl)-2-oxo-ethylimino-imidazolidin-2-one] | 4.9 µM |
| O=C1N/C(=N\C2CCCc3ccccc32)C(c2cc(Br)cs2)N1c1ccc2nc[nH]c2c1 (centres unmarked) [Compound 236, 1-(3H-Benzoimidazol-5-yl)-5-(4-bromo-thiophen-2-yl)-4-1,2,3,4-tetrahydro-naphthalen-1-ylimino-imidazolidin-2-one] | 2.2 µM |
| CC(CC1/C(=N/C2CCCCCC2)NC(=O)N1c1ccc2nc[nH]c2c1)CC(C)(C)C (centres unmarked) [Compound 130, 1-(3H-Benzoimidazol-5-yl)-4-cycloheptylimino-5-(2,4,4-trimethyl-pentyl)-imidazolidin-2-one] | 7.6 µM |
| O=C1N/C(=N/c2ccc3c(c2)OCCO3)C(c2ccc(Br)cc2)N1c1ccc2[nH]cnc2c1 (centres unmarked) [Compound 331, 1-(1H-Benzoimidazol-5-yl)-5-(4-bromo-phenyl)-4-[2,3-dihydro-benzo[1,4]dioxin-6-ylimino]-imidazolidin-2-one] | 0.004 µM |
| O=C1CCCN1CCC/N=C1/NC(=S)N(c2ccc3[nH]cnc3c2)C1c1ccc2c(c1)OCO2 (centres unmarked) [Compound 255, 1-(3-(5-(benzo[d][1,3]dioxol-5-yl)-1-(1H-benzo[d]imidazol-5-yl)-2-thioxoimidazolidin-4-ylideneamino)propyl)pyrrolidin-2-one] | 6.7 µM |
| CC1=CC(C)C(C2/C(=N/C3CCc4ccccc43)NC(=S)N2c2ccc3[nH]cnc3c2)CC1 (centres unmarked) [Compound 273, 1-(1H-Benzoimidazol-5-yl)-5-(2,4-dimethyl-cyclohex-3-enyl)-4-indan-1-ylimino-imidazolidine-2-thione] | 7.6 µM |
| O=C1N/C(=N/Cn2nnc3ccccc32)C(c2ccc3nsnc3c2)N1c1ccc2[nH]cnc2c1 (centres unmarked) [Compound 271, 1-(1H-Benzoimidazol-5-yl)-5-benzo[c][1,2,5]thiadiazol-5-yl-4-benzotriazol-1-ylmethylimino-imidazolidin-2-one] | 0.4 µM |
| Cc1ccc(C2/C(=N/C(C)(C)CC(C)(C)C)NC(=O)N2c2ccc3nc[nH]c3c2)c(C)c1 (centres unmarked) [Compound 262, 1-(3H-Benzoimidazol-5-yl)-5-(2,4-dimethyl-phenyl)-4-1,1,3,3-tetramethyl-butylimino-imidazolidin-2-one] | 1.3 µM |

The remaining lines, values ahead:

| IC50 | Compound |
| --- | --- |
| 1.3 µM | Cc1ccc2c(C3/C(=N\CCCc4ccccc4)NC(=O)N3c3ccc4[nH]cnc4c3)c[nH]c2c1 (centres unmarked) [Compound 120, 1-(1H-Benzoimidazol-5-yl)-5-(6-methyl-1H-indol-3-yl)-4-3-phenyl-propylimino-imidazolidin-2-one] |
| 3.1 µM | O=C(C/N=C1/NC(=O)N(CCCn2ccnc2)C1c1ccc(F)cc1)N1CCc2ccccc2C1 (centres unmarked) [Compound 78, 4-2-(3,4-Dihydro-1H-isoquinolin-2-yl)-2-oxo-ethylimino-5-(4-fluoro-phenyl)-1-(3-imidazol-1-yl-propyl)-imidazolidin-2-one] |
| 0.4 µM | O=C1NC(=NC2CCCc3ccccc32)C(c2ccccc2Cl)N1c1ccc2[nH]cnc2c1 (centres unmarked) [Compound 190, 1-(1H-Benzoimidazol-5-yl)-5-(2-chloro-phenyl)-4-1,2,3,4-tetrahydro-naphthalen-1-ylimino-imidazolidin-2-one] |
| 4.9 µM | O=C1N/C(=N/CCc2cccs2)C(c2ccc(O)cc2)N1CCCn1ccnc1 (centres unmarked) [Compound 45, 5-(4-Hydroxy-phenyl)-1-(3-imidazol-1-yl-propyl)-4-2-thiophen-2-yl-ethylimino-imidazolidin-2-one] |
| 4 µM | O=C(C/N=C1\NC(=O)N(CCCn2ccnc2)C1c1cccc(F)c1F)N1CCc2ccccc2C1 (centres unmarked) [Compound 68, 5-(2,3-Difluoro-phenyl)-4-2-(3,4-dihydro-1H-isoquinolin-2-yl)-2-oxo-ethylimino-1-(3-imidazol-1-yl-propyl)-imidazolidin-2-one] |
| 6.7 µM | O=C1N/C(=N\c2ccc3c(c2)OCCO3)C(C2CCC=CO2)N1CCCn1ccnc1 (centres unmarked) [Compound 30, 4-2,3-Dihydro-benzo1,4dioxin-6-ylimino-5-(3,4-dihydro-2H-pyran-2-yl)-1-(3-imidazol-1-yl-propyl)-imidazolidin-2-one] |
| 7.6 µM | O=C1N/C(=N\CCC(c2ccccc2)c2ccccc2)C(c2cccc(F)c2)N1CCCn1ccnc1 (centres unmarked) [Compound 113, 4-3,3-Diphenyl-propylimino-5-(3-fluoro-phenyl)-1-(3-imidazol-1-yl-propyl)-imidazolidin-2-one] |
| 1.3 µM | S=C1N/C(=N/Cn2nnc3ccccc32)C(c2ccc3ccccc3c2)N1c1ccc2[nH]cnc2c1 (centres unmarked) [Compound 309, 1-(1H-Benzoimidazol-5-yl)-4-benzotriazol-1-ylmethylimino-5-naphthalen-2-yl-imidazolidine-2-thione] |
| 5.8 µM | O=C1N/C(=N\Cc2ccccc2)C(c2cccc(F)c2F)N1CCCn1ccnc1 (centres unmarked) [Compound 94, 4-Benzylimino-5-(2,3-difluoro-phenyl)-1-(3-imidazol-1-yl-propyl)-imidazolidin-2-one] |
| 1.3 µM | O=C1N/C(=N\CCCc2ccccc2)C(c2coc3ccccc3c2=O)N1c1ccc2[nH]cnc2c1 (centres unmarked) [Compound 209, 1-(1H-Benzoimidazol-5-yl)-5-(4-oxo-4H-chromen-3-yl)-4-3-phenyl-propylimino-imidazolidin-2-one] |
| 9.4 µM | Cc1cccc(C2/C(=N/CCCN(C)C)NC(=O)N2c2ccc3[nH]cnc3c2)c1 (centres unmarked) [Compound 253, 4-(3-(Dimethylamino)propylimino)-1-(1H-benzo[d]imidazol-5-yl)-5-m-tolylimidazolidin-2-one] |
| 2.2 µM | S=C1NC(=NCn2nnc3ccccc32)C(c2ccnc3ccccc23)N1c1ccc2nc[nH]c2c1 (centres unmarked) [Compound 279, 1-(3H-Benzoimidazol-5-yl)-4-benzotriazol-1-ylmethylimino-5-quinolin-4-yl-imidazolidine-2-thione] |
| 1.3 µM | Cc1cccc(C2/C(=N\Cn3nnc4ccccc43)NC(=S)N2c2ccc3[nH]cnc3c2)c1 (centres unmarked) [Compound 285, 1-(1H-Benzoimidazol-5-yl)-4-benzotriazol-1-ylmethylimino-5-m-tolyl-imidazolidine-2-thione] |
| 4.9 µM | O=C1N/C(=N\c2ccc3c(c2)OCCO3)C(c2ccc(Cl)c(F)c2)N1CCCn1ccnc1 (centres unmarked) [Compound 33, 5-(4-Chloro-3-fluoro-phenyl)-4-2,3-dihydro-benzo1,4dioxin-6-ylimino-1-(3-imidazol-1-yl-propyl)-imidazolidin-2-one] |
| 6.7 µM | S=C1N/C(=N/Cc2ccccc2)C(c2cccc(Br)c2)N1c1ccc2[nH]cnc2c1 (centres unmarked) [Compound 261, 1-(1H-Benzoimidazol-5-yl)-4-benzylimino-5-(3-bromo-phenyl)-imidazolidine-2-thione] |
| 1.3 µM | O=C1N/C(=N\Cn2nnc3ccccc32)C(c2ccccc2F)N1c1ccc2[nH]cnc2c1 (centres unmarked) [Compound 337, 1-(1H-Benzoimidazol-5-yl)-4-benzotriazol-1-ylmethylimino-5-(2-fluoro-phenyl)-imidazolidin-2-one] |
| 5.8 µM | O=C1N/C(=N\Cc2ccccc2)C(c2ccccc2F)N1CCCn1ccnc1 (centres unmarked) [Compound 98, 4-Benzylimino-5-(2-fluoro-phenyl)-1-(3-imidazol-1-yl-propyl)-imidazolidin-2-one] |
| 9.4 µM | CCc1ccccc1/N=C1\NC(=S)N(c2ccc3[nH]cnc3c2)C1c1ccccc1 (centres unmarked) [Compound 317, 1-(1H-Benzoimidazol-5-yl)-4-2-ethyl-phenylimino-5-phenyl-imidazolidine-2-thione] |
| 6.7 µM | O=C(C/N=C1/NC(=O)N(CCCn2ccnc2)C1c1ccco1)N1CCc2ccccc2C1 (centres unmarked) [Compound 73, 4-2-(3,4-Dihydro-1H-isoquinolin-2-yl)-2-oxo-ethylimino-5-furan-2-yl-1-(3-imidazol-1-yl-propyl)-imidazolidin-2-one] |
| 6.7 µM | COc1cc(C/N=C2/NC(=O)N(CCCn3ccnc3)C2C2CCC=CO2)cc(OC)c1OC (centres unmarked) [Compound 24, 5-(3,4-Dihydro-2H-pyran-2-yl)-1-(3-imidazol-1-yl-propyl)-4-3,4,5-trimethoxy-benzylimino-imidazolidin-2-one] |
